In article PMC7268545, “Development of a QPatch-Automated Electrophysiology Assay for Identifying TMEM16A Small-Molecule Inhibitors” (Assay and Drug Development Technologies, 2020):
Like-named read-outs stand apart in the source and are kept apart here.

What was measured:
[1] = molecular target: T1, human ANO1 channel (isoform acd) (Homo sapiens, UniProt Q5XXA6); assay: QPatch-48 automated whole-cell electrophysiology, cumulative five-concentration single-addition protocol; format: cell-based
T1 construct: host or cells: HEK293T
T1 sequence (Q5XXA6 1-986): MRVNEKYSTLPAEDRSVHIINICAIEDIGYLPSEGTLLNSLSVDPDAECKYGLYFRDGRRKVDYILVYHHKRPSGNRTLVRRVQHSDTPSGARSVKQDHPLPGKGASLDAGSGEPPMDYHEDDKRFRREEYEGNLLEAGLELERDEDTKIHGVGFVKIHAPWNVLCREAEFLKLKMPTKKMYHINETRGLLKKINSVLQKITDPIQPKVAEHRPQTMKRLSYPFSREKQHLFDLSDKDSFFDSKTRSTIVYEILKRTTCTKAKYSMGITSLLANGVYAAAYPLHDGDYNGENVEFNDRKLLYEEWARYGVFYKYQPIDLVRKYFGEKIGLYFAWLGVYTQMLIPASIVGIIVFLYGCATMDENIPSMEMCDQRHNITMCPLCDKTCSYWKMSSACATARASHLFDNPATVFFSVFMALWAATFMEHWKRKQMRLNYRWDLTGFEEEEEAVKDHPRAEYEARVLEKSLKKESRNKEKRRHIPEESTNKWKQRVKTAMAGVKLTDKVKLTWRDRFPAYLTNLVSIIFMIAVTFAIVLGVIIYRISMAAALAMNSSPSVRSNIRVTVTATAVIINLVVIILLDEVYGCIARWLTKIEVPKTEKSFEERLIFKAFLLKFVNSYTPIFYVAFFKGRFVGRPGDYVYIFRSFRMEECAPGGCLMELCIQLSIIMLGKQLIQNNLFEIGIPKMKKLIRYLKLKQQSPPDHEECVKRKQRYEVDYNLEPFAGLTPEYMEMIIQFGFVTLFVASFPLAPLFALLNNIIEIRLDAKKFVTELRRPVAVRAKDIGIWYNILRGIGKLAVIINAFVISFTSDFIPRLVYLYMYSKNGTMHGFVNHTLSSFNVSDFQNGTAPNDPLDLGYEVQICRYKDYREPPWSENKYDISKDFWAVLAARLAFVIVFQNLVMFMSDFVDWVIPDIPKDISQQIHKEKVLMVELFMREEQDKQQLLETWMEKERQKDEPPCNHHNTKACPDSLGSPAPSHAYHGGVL
Experimental: HEK293T cells stably expressing the human ANO1 channel (isoform acd) were obtained from Scottish Biomedical. Cells were cultured in Sigma Minimum Essential Media containing 10% heat-inactivated fetal bovine serum, 1% penicillin/streptomycin, 1% glutamine, and […] geneticin. Cells were maintained in a 37°C, 5% CO2 environment. Cells were passaged every 3 days after they had reached ∼70% confluency and were not allowed to reach a density greater than 1–2 × 10^5 cells/cm^2 during routine culture. When subculturing, cells were rinsed once with room temperature 1 × phosphate-buffered saline (PBS; Ca^2+/Mg^2+ free), lifted with TrypLE Express, resuspended in prewarmed growth media, and counted using a hemocytometer. Cells were then plated in T150 flasks at a density of 2.9 × 10^4 cells/cm^2 to be either used in the assay or subcultured 72 h later.
On the day of the experiment, cells plated at a density of 2.9 × 10^4 cells/cm^2 72 h prior should be ∼70%–80% confluent. After cells were rinsed with prewarmed 1 × PBS (Ca^2+/Mg^2+ free), 3 mL of room temperature Detachin solution (Genlantis) was added to the flask and tilted gently two to three times to cover all the cells. Approximately 2 mL of Detachin was aspirated from the flask, leaving 1 mL on the cells, and then placed in the 37°C incubator for 5 min. Once cells had rounded up, the cells were dislodged by tapping the flask gently. The cells were then resuspended in 5 mL of warm serum-free media (EX-CELL ACF CHO Medium; Sigma; supplemented with 4 mM L-glutamine and 10 mM HEPES). A glass Pasteur pipette with a rubber bulb was then used to gently dissociate the cells from one another. Detachin will often leave cells as doublets or clumps, conditions that will disrupt seal formation on the QPatch. The cells were triturated ∼30 times and then, still using the Pasteur pipette, transferred into the QPatch Cell Hotel. This ensures that cells detach from one another leaving a suspension of single cells. A QStirrer was added to the Cell Hotel and the cell suspension was immediately placed on the QPatch device. Cells were utilized within 15 min.
Compounds were reconstituted in dimethyl sulfoxide (DMSO; Sigma) as 10 mM stock solutions. An automated dilution machine set up the microtiter plate (MTP ) by making 1:5 dilutions from a starting concentration of 30 μM. The concentration of DMSO was equal for all concentrations tested. Each MTP contained one row of a negative control (DMSO) and a positive control (benzbromarone). A total of eight compounds were run at a time. All compounds tested were produced in-house.
Whole-cell patch-clamp experiments were performed on a QPatch-48-automated electrophysiology platform (Sophion Biosciences) using the 48-channel, single-hole QPlate (resistance 2.0 ± 0.4 MΩ). The external buffer (in mM) was 140 NaCl, 4 KCl, 2 CaCl2, 1 MgCl2, 10 HEPES, 10 glucose, pH 7.4 (osmolarity = 300), and the internal buffer (in mM) was 110 CsCl, 20 TEA-Cl, 5.374 CaCl2, 1.75 MgCl2, 10 EGTA, 10 HEPES, 4 Na2ATP, pH 7.2 (osmolarity = 310). Cell positioning was set to a 5-s wait time with a positioning pressure of −60 mbar and a positioning time-out of 60 s. Resistance was set to increase 750% to ensure the success of positioning. To obtain a seal, pressure was increased to −70 mbar with an allowed pressure of −130 to −20 mbar and a holding pressure of −20 mbar. The holding potential was set to −70 mV and a 240-s time-out was set. The minimum seal resistance was set to 0.02 GΩ. To go whole cell, five 1-s suction pulses were applied starting at −180 mbar and increasing with −40 mbar increments with a pulse period of 10 s. Suction ramp and voltage zap protocols were kept standard, according to the default HEK cell settings. […] The suction ramp order of use was set to 2 with a ramp amplitude of −450 mbar and a ramp slope of 100 ms/mbar.
Once established in whole-cell configuration, cells are clamped to a holding potential (Vhold) of 0 mV.

[2] = molecular target: T2, TMEM16A (Homo sapiens, UniProt Q5XXA6); assay: fluorescence-based eYFP-quench assay; format: cell-based; details: iodide based assay
T2 construct: expressed in transfected cells; host or cells: HEK293T-derived, doxycycline-inducible
T2 sequence (Q5XXA6 1-986): T1 sequence (Q5XXA6 1-986)
Source text: This was possibly due to the eYFP assay being iodide based, since it has been reported that the anion passing through the pore has an effect on the open state of the channel.[12] It is also impossible to control the intracellular calcium level in this assay, which could explain the discrepancy in potency.[37] […] There is clearly a need for an automated electrophysiology assay for TMEM16A, whether looking at activators or inhibitors. TMEM16A has proven to be a difficult channel for electrophysiology, owing to its fast rundown, small currents, and the fact that it is a ligand-gated channel. In addition, fluoride, typically used in automated patch-clamp assays to improve seal quality, is known to decrease calcium salt solubility. Therefore, a fluoride-free internal solution is preferable when trying to control for a precise internal calcium concentration.

[3] = parameters: method as in PMID 28493701; details: cited from earlier work
[4] = molecular target: T2, TMEM16A; parameters: method as in PMID 24642630; details: read-out: reported IC50; cited from earlier work
[5] = independent experiment 1, block at +100 mV, 250 nM internal free-calcium, read-out: IC50s for independent experiments 1
[6] = independent experiment 2, read-out: IC50s for independent experiments 2
[7] = independent experiment 3, read-out: IC50s for independent experiments 3
[8] = independent experiment 4, read-out: IC50s for independent experiments 4

IC50 [1, 5]	IC50 [1, 6]	IC50 [1, 7]	IC50 [1, 8]	SMILES	further results
1.18 µM	0.85 µM	1.1 µM	1.57 µM	N#Cc1c(C(F)(F)F)cc(O)n2c1nc1ccccc12 [1PBC]	potency relative to that reported ([1]; versus reported value, ref 36 (mouse TMEM16A)): ~10 times; inhibition in eYFP-quench assay [2]: 40%
–	–	–	–	COc1ccccc1/C=N/NC(=O)COc1ccc(Cl)cc1C [Ani9]	metabolic stability [3]: metabolically unstable
5.29 µM	4.62 µM	8.45 µM	11.1 µM	O=C(O)c1cccnc1Nc1cccc(C(F)(F)F)c1 [Niflumic acid]	IC50 [4]: 12 µM; IC50 ([1]; full plate format (with rundown), n = 3, read-out: IC50, full plate): 3.89 ± 0.11 µM; IC50 ([1]; independent experiment 5, read-out: IC50s for independent experiments 5): 7.71 µM; effect on deactivation rate ([1]; tail current deactivation): slower deactivation rate
–	–	–	–	CCc1c(C)nc(SCC(=O)Nc2nc(-c3ccc(OC)cc3)cs2)[nH]c1=O [T16Ainh-A01]	block of current ([1]; maximum block seen): ≤ 40%
